From ChEMBL document CHEMBL1255252, “E240V substitution increases catalytic efficiency toward ceftazidime in a new natural TEM-type extended-spectrum beta-lactamase, TEM-149, from Enterobacter aerogenes and Serratia marcescens clinical isolates” (2008)
In brackets after ≈: the same amount, converted by molar mass.

Legend:
Escherichia coli [1] = experiment: Antimicrobial activity against Escherichia coli HB101 harboring empty vector pBK-SK by broth macrodilution method; type: functional
Klebsiella aerogenes = experiment: Antimicrobial activity against Enterobacter aerogenes isolate SS-13 by broth macrodilution method; type: functional
Escherichia coli [2] = experiment: Antimicrobial activity against Escherichia coli HB101 expressing recombinant plasmid encoded TEM-149 by broth macrodilution method; type: functional
[3] = Activity of Beta-lactamase TEM-149 expressed in Escherichia coli HB101
Escherichia coli [4] = experiment: Antimicrobial activity against Escherichia coli HB101 expressing plasmid encoded TEM-149 T182M mutant by broth macrodilution method; type: functional
Serratia marcescens = experiment: Antimicrobial activity against Serratia marcescens isolate CT-118 by broth macrodilution method; type: functional
[5] = Ratio of Kcat to Km for Beta-lactamase TEM-149 expressed in Escherichia coli HB101
[6] = Ratio of Kcat to Km for Beta-lactamase TEM-149 T182M mutant expressed in Escherichia coli HB101
[7] = Activity of Beta-lactamase TEM-149 T182M mutant expressed in Escherichia coli HB101
[8] = Ratio of Kcat to Km for Beta-lactamase TEM-10
[9] = Activity of Beta-lactamase TEM-10

Row | SMILES | MIC (Escherichia coli [1]) | MIC (Klebsiella aerogenes) | MIC (Escherichia coli [2]) | Km [3] | kcat [3] | MIC (Escherichia coli [4]) | MIC (Serratia marcescens) | kcat/Km [5] | kcat/Km [6] | Km [7] | kcat [7] | kcat/Km [8] | Km [9] | kcat [9]
1 | CO/N=C(\C(=O)N[C@@H]1C(=O)N2C(C(=O)[O-])=C(C[N+]3(C)CCCC3)CS[C@H]12)c1csc(N)n1 | 1 µg/mL (≈ 2.08 µM) | > 64 µg/mL | 8 µg/mL | 16 µM | 2.4 s⁻¹ | < 0.125 µg/mL | > 64 µg/mL | 150000 M⁻¹ s⁻¹ | 14000 M⁻¹ s⁻¹ | 30 µM | 0.43 s⁻¹ |  |  | 
2 | CC1(C)S[C@@H]2[C@H](NC(=O)Cc3ccccc3)C(=O)N2[C@H]1C(=O)O |  |  |  | 0.6 µM | 3.5 s⁻¹ |  |  | 5.8e+06 M⁻¹ s⁻¹ | 1.5e+07 M⁻¹ s⁻¹ | 0.7 µM | 10.5 s⁻¹ | 2.55e+07 M⁻¹ s⁻¹ | 2 µM | 51 s⁻¹
3 | CC1(C)S[C@@H]2[C@H](NC(=O)[C@H](N)c3ccccc3)C(=O)N2[C@H]1C(=O)O |  |  |  | 5 µM | 5.4 s⁻¹ |  |  | 1.08e+06 M⁻¹ s⁻¹ | 127000 M⁻¹ s⁻¹ | 19 µM | 2.4 s⁻¹ | 3.1e+06 M⁻¹ s⁻¹ | 4 µM | 12.5 s⁻¹
4 | CC1(C)S[C@@H]2[C@H](NC(=O)[C@H](N)c3ccc(O)cc3)C(=O)N2[C@H]1C(=O)O [AMOXICILLIN] |  | > 64 µg/mL | > 64 µg/mL |  |  | 8 µg/mL (≈ 21.9 µM) | > 64 µg/mL |  |  |  |  |  |  | 
5 | C[C@H]1[C@H](NC(=O)/C(=N\OC(C)(C)C(=O)O)c2csc(N)n2)C(=O)N1S(=O)(=O)O [AZTREONAM] | 64 µg/mL (≈ 147 µM) | > 64 µg/mL | > 64 µg/mL | 51 µM | 4.7 s⁻¹ | < 0.125 µg/mL | > 64 µg/mL | 92000 M⁻¹ s⁻¹ | 130000 M⁻¹ s⁻¹ | 27 µM | 3.6 s⁻¹ | 70000 M⁻¹ s⁻¹ | 28 µM | 2 s⁻¹
6 | Cc1nnc(SCC2=C(C(=O)O)N3C(=O)[C@@H](NC(=O)Cn4cnnn4)[C@H]3SC2)s1 [CEFAZOLIN] | 4 µg/mL (≈ 8.8 µM) | > 64 µg/mL | 32 µg/mL | 68 µM | 2.2 s⁻¹ | 1 µg/mL (≈ 2.2 µM) | > 64 µg/mL | 32000 M⁻¹ s⁻¹ | 16000 M⁻¹ s⁻¹ | 35 µM | 0.56 s⁻¹ | 30000 M⁻¹ s⁻¹ | 417 µM | 12.5 s⁻¹
7 | CO/N=C(\C(=O)N[C@@H]1C(=O)N2C(C(=O)O)=C(COC(C)=O)CS[C@H]12)c1csc(N)n1 [CEFOTAXIME] | 4 µg/mL (≈ 8.78 µM) | > 128 µg/mL | 1 µg/mL | 43 µM | 0.07 s⁻¹ | < 0.125 µg/mL | > 128 µg/mL | 1600 M⁻¹ s⁻¹ | 13000 M⁻¹ s⁻¹ | 32 µM | 0.41 s⁻¹ | 10000 M⁻¹ s⁻¹ | 30 µM | 0.3 s⁻¹
8 | CC(C)(O/N=C(\C(=O)N[C@@H]1C(=O)N2C(C(=O)[O-])=C(C[n+]3ccccc3)CS[C@H]12)c1csc(N)n1)C(=O)O [CEFTAZIDIME] | > 64 µg/mL | > 64 µg/mL | > 64 µg/mL | 19 µM | 8.3 s⁻¹ | 0.5 µg/mL (≈ 0.915 µM) | > 64 µg/mL | 440000 M⁻¹ s⁻¹ | 320000 M⁻¹ s⁻¹ | 26 µM | 8.3 s⁻¹ | 28000 M⁻¹ s⁻¹ | 607 µM | 17 s⁻¹
9 | CCN1CCN(C(=O)N[C@@H](C(=O)N[C@@H]2C(=O)N3[C@@H]2SC(C)(C)[C@@H]3C(=O)O)c2ccccc2)C(=O)C1=O [PIPERACILLIN] | 32 µg/mL (≈ 61.8 µM) | > 256 µg/mL | > 256 µg/mL | 1.4 µM | 2.7 s⁻¹ | 1 µg/mL (≈ 1.93 µM) | > 256 µg/mL | 1.92e+06 M⁻¹ s⁻¹ | 1.47e+06 M⁻¹ s⁻¹ | 3.4 µM | 5 s⁻¹ |  |  | 
